From patent US11279714B2, “Anti-infective compounds” (priority 2014, dated 2022)
In brackets after ≈: the same amount, converted by molar mass.

Columns and labels:
[1] = system: M. tuberculosis H37Rv expressing the green fluorescent protein (H37Rv-GFP); assay: microbe, parasite or virus in culture; type: cell-based; settings: Mycobacterium tuberculosis, H37RV, 120 h; read-out: QUM (MIC50)
[2] = system: Raw 264.7 cells infected with H37Rv-GFP; assay: microbe, parasite or virus in culture; type: cell-based, M. tuberculosis; settings: Mycobacterium tuberculosis, H37RV, 120 h; read-out: QIM (MIC50)

SMILES	melting point	MIC50 [1]	MIC50 [2]
O=C(Nc1ccc(-c2cc3n(n2)CCO3)cc1)c1cc2sc(N3CCOCC3)nc2s1 [Compound 164]	361.2 °C	> 20 µM	> 20 µM
O=C1Cc2cc(NC(=O)c3cc4nc(N5CCCCC5)sc4s3)ccc2N1 [Compound 23]	260 °C	> 20 µM	> 20 µM
O=C(Nc1ccc(-c2ccccc2)cc1)c1cc2sc(N3CCCCC3)nc2s1 [Compound 39]	231.1 °C	> 20 µM	< 1 µM
O=C(Nc1ccc(F)c(F)c1)c1cc2sc(N3CCCCC3)nc2s1 [Compound 36]	218 °C	1 to 20 µM (≈ 0.379 to 7.59 µg/mL)	< 1 µM
COc1ccc(OCCNC(=O)c2cc3sc(N4CCOCC4)nc3s2)cc1 [Compound 82]	172.1 °C	> 20 µM	1 to 20 µM (≈ 0.42 to 8.39 µg/mL)
O=C(Nc1cccc(Br)c1)c1cc2sc(N3CCOCC3)nc2s1 [Compound 118]	199 °C	> 20 µM	< 1 µM
CC(CNC(=O)c1ccc2nc(N3CCCCC3)sc2c1)c1ccccc1 (stereo not drawn) [Compound 1]	196 °C	> 20 µM	> 20 µM
COCn1c(N2CCOCC2)nc2sc(C(=O)Nc3ccc4oc(C)nc4c3)cc21 [Compound 179]	117.2 °C	> 20 µM	> 20 µM
CN(C)C(=O)C1CCN(c2nc3sc(C(=O)n4nc(-c5ccc(N)cc5)cc4O)cc3s2)CC1 [Compound 198]	269 °C	> 20 µM	> 20 µM
Cc1nc2cc(NC(=O)c3sc4nc(N5CCOCC5)sc4c3-c3ccccc3)ccc2o1 [Compound 166]	285 °C	> 20 µM	> 20 µM
CCN(Cc1ccc(OC)cc1)c1nc2sc(C(=O)Nc3ccc(OC)cc3)cc2s1 [Compound 114]	112 °C	1 to 20 µM (≈ 0.454 to 9.07 µg/mL)	< 1 µM
O=C(Nc1ccc(F)cc1)c1cc2nc(N3CCCCC3)sc2s1 [Compound 8]	218 °C	1 to 20 µM (≈ 0.361 to 7.23 µg/mL)	1 to 20 µM (≈ 0.361 to 7.23 µg/mL)
COc1ccc(NC(=O)c2cc3sc(NC4CCCCC4)nc3s2)cc1 [Compound 79]	231 °C	> 20 µM	< 1 µM
CN(C)C(=O)C1CCN(c2nc3sc(C(=O)Nc4ccc(F)nc4)cc3s2)CC1 [Compound 137]	295.9 °C	< 1 µM	1 to 20 µM (≈ 0.434 to 8.67 µg/mL)
O=C(Nc1ccc(O)cc1)c1cc2nc(N3CCCCC3)sc2s1 [Compound 18]	266 °C	1 to 20 µM (≈ 0.359 to 7.19 µg/mL)	> 20 µM
CN(C)C(=O)C1CCN(c2nc3sc(C(=O)Nc4ccc5oc(-c6ccc(F)cc6)nc5c4)cc3s2)CC1 [Compound 171]	323 °C	> 20 µM	< 1 µM
O=C(Nc1ccc(F)cc1)c1cc2sc(N3CCCCC3)nc2s1 [Compound 53]	233 °C	< 1 µM	< 1 µM
COc1ccc(NC(=O)c2csc3nc(N4CCCCC4)sc23)cc1 [Compound 73]	209.8 °C	> 20 µM	> 20 µM
O=C(Nc1ccc2ncoc2c1)c1cc2sc(N3CCOCC3)nc2s1 [Compound 101]	281.8 °C	1 to 20 µM (≈ 0.386 to 7.73 µg/mL)	< 1 µM

SMILES	melting point	MIC50 [1]	MIC50 [2]
Cn1ncc2ccc(NC(=O)c3cc4sc(N5CCOCC5)nc4s3)cc21 [Compound 131]	288 °C	> 20 µM	> 20 µM
COc1ccc(NC(=O)c2cc3sc(N4CCN(C)CC4)nc3s2)cc1 [Compound 110]	219.8 °C	1 to 20 µM (≈ 0.389 to 7.77 µg/mL)	< 1 µM
COc1ccc(NC(=O)c2cc3sc(N4CCN5CCCC5C4)nc3s2)cc1 (stereo not drawn) [Compound 100]	195 °C	1 to 20 µM (≈ 0.415 to 8.29 µg/mL)	< 1 µM
CN(C)C(=O)C1CCN(c2nc3sc(C(=O)Nc4ccc(F)cc4)cc3s2)CC1 [Compound 136]	296.2 °C	< 1 µM	< 1 µM
O=C(Nc1ccc(-c2n[nH]cc2F)cc1)c1cc2sc(N3CCOCC3)nc2s1.O=C(O)C(F)(F)F [Compound 159]	287.2 °C	1 to 20 µM	< 1 µM
COc1ccc(NC(=O)c2cc3sc(N)nc3s2)cc1 [Compound 64]	260 °C	> 20 µM	1 to 20 µM (≈ 0.305 to 6.11 µg/mL)
O=C(Nc1ccc(F)c(F)c1)c1cc2nc(N3CCCCC3)sc2s1 [Compound 3]	246.3 °C	1 to 20 µM (≈ 0.379 to 7.59 µg/mL)	< 1 µM
COc1ccc(CCNC(=O)c2cc3nc(N4CCCCC4)sc3s2)cc1 [Compound 22]	188 °C	1 to 20 µM (≈ 0.402 to 8.03 µg/mL)	1 to 20 µM (≈ 0.402 to 8.03 µg/mL)
O=C(Nc1ccc(F)cc1)c1cc2sc(N3CCNCC3)nc2s1 [Compound 139]	247.5 °C	1 to 20 µM (≈ 0.362 to 7.25 µg/mL)	1 to 20 µM (≈ 0.362 to 7.25 µg/mL)
Cc1nc2cc(NC(=O)c3cn4nc(N5CCOCC5)sc4n3)ccc2o1 [Compound 189]	311 °C	> 20 µM	> 20 µM
CN(C(=O)c1cc2nc(N3CCCCC3)sc2s1)c1ccc(F)c(F)c1 [Compound 20]	170.1 °C	1 to 20 µM (≈ 0.393 to 7.87 µg/mL)	> 20 µM
O=C(Nc1cccc(Oc2ccccc2)c1)c1cc2sc(N3CCOCC3)nc2s1 [Compound 87]	169.5 °C	1 to 20 µM (≈ 0.438 to 8.75 µg/mL)	1 to 20 µM (≈ 0.438 to 8.75 µg/mL)
Cn1cc(F)c(-c2ccc(NC(=O)c3cc4sc(N5CCOCC5)nc4s3)cc2)n1 [Compound 162]	280.5 °C	1 to 20 µM (≈ 0.444 to 8.87 µg/mL)	< 1 µM
O=C(Nc1ccc(F)cc1)c1cc2sc(N3CCC(O)CC3)nc2s1 [Compound 134]	241.7 °C	< 1 µM	< 1 µM
COc1ccc(NC(=O)c2ccc3nc(N4CCCCC4)sc3c2)cc1 [Compound 5]	214 °C	> 20 µM	> 20 µM
Nc1ccc(OC(=O)c2cc3nc(N4CCCCC4)sc3s2)cc1 [Compound 9]	153 °C	> 20 µM	> 20 µM
O=C(Nc1ccc(N2CCC(c3ccc(Cl)cc3)CC2)cc1)c1cc2sc(N3CCOCC3)nc2s1 [Compound 190]	281.1 °C	> 20 µM	> 20 µM
Cc1nc2ccc(NC(=O)c3cc4sc(N5CCOCC5)nc4s3)cc2o1 [Compound 85]	273.6 °C	< 1 µM	< 1 µM
Cc1nc2cc(NC(=O)N3CCc4nc(N5CCOCC5)sc4C3)ccc2o1 [Compound 187]	104 °C	> 20 µM	> 20 µM

SMILES	melting point	MIC50 [1]	MIC50 [2]
O=C(Nc1ccc(CN2CCN(c3ccc(Cl)cc3)CC2)cc1)c1cc2sc(N3CCOCC3)nc2s1 [Compound 199]	249.9 °C	1 to 20 µM (≈ 0.554 to 11.1 µg/mL)	< 1 µM
Cc1cnc(-c2ccc(NC(=O)c3cc4sc(N5CCOCC5)nc4s3)cc2)o1 [Compound 154]	287.3 °C	< 1 µM	< 1 µM
Cc1nc2cc(NC(=O)c3cc4sc(N5CC(C)OC(C)C5)nc4s3)ccc2o1 (stereo not drawn) [Compound 180]	274 °C	1 to 20 µM (≈ 0.429 to 8.57 µg/mL)	< 1 µM
CCC1CN(c2nc3sc(C(=O)Nc4ccc5oc(C)nc5c4)cc3s2)CCO1 (stereo not drawn) [Compound 153]	214 °C	< 1 µM	< 1 µM
O=C(Nc1ccc(C(F)(F)F)cc1)c1cc2sc(N3CCCCC3)nc2s1 [Compound 41]	289.2 °C	> 20 µM	< 1 µM
O=C(Nc1ccn(-c2ccccc2)n1)c1cc2sc(N3CCOCC3)nc2s1 [Compound 165]	257.8 °C	> 20 µM	1 to 20 µM (≈ 0.412 to 8.23 µg/mL)
COc1ccc(NC(=O)c2cc3sc(N4CCCCC4)nc3s2)cc1 [Compound 35]	235 °C	< 1 µM	< 1 µM
N#Cc1ccc(NC(=O)c2cc3sc(N4CCOCC4)nc3s2)cc1 [Compound 112]	212 °C	> 20 µM	< 1 µM
N#Cc1ccc(NC(=O)c2cc3nc(N4CCCCC4)sc3s2)cc1 [Compound 32]	163 °C	1 to 20 µM (≈ 0.368 to 7.37 µg/mL)	< 1 µM
Cc1nc2cc(NC(=O)c3cc4sc(N5CCC(C(=O)N(C)C)C5)nc4s3)ccc2o1 (stereo not drawn) [Compound 192]	274 °C	1 to 20 µM (≈ 0.456 to 9.11 µg/mL)	1 to 20 µM (≈ 0.456 to 9.11 µg/mL)
O=C(Nc1ccccc1)c1cc2sc(N3CCCCC3)nc2s1 [Compound 46]	259.1 °C	1 to 20 µM (≈ 0.343 to 6.87 µg/mL)	< 1 µM
COc1ccc(CNc2nc3sc(C(=O)Nc4ccc(OC)cc4)cc3s2)cc1 [Compound 63]	243 °C	> 20 µM	< 1 µM
O=C(Nc1ccccc1)c1cc2nc(N3CCCCC3)sc2s1 [Compound 25]	222.6 °C	> 20 µM	1 to 20 µM (≈ 0.343 to 6.87 µg/mL)
O=C(Nc1ccc(-c2ccn(C3CCCCO3)n2)cc1)c1cc2sc(N3CCOCC3)nc2s1 (stereo not drawn) [Compound 155]	293 °C	> 20 µM	< 1 µM
CN(C)C(=O)C1CCN(c2nc3sc(C(=O)Nc4ccc5oc(CN6CCOCC6)nc5c4)cc3s2)CC1 [Compound 196]	239 °C	1 to 20 µM (≈ 0.555 to 11.1 µg/mL)	1 to 20 µM (≈ 0.555 to 11.1 µg/mL)
COc1ccc(NC(=O)c2cc3sc(N4CCC(C(=O)N5CCOCC5)CC4)nc3s2)cc1 [Compound 125]	268 °C	< 1 µM	< 1 µM
COc1ccc(NC(=O)c2cc3sc(N4CCC4)nc3s2)cc1 [Compound 80]	256 °C	1 to 20 µM (≈ 0.345 to 6.91 µg/mL)	< 1 µM
Cc1nnc(-c2ccc(NC(=O)c3cc4sc(N5CCOCC5)nc4s3)cc2Cl)o1 [Compound 148]	248 °C	> 20 µM	> 20 µM
O=C(Nc1ccc(OC(F)(F)F)cc1)c1cc2sc(N3CCCCC3)nc2s1 [Compound 58]	239 °C	1 to 20 µM (≈ 0.427 to 8.55 µg/mL)	< 1 µM
